Test results as given in patent US9777005B2 (Takeda Pharmaceutical Company Limited, priority 2012, dated 2017).
Each block holds one molecule with its values, some of them ahead of it.

Molecular target: T1, human M1 receptor (hCHRM1) (Homo sapiens, UniProt P11229)
T1 construct: expressed in transfected cells; host or cells: CHO-K1
T1 sequence (P11229 1-460): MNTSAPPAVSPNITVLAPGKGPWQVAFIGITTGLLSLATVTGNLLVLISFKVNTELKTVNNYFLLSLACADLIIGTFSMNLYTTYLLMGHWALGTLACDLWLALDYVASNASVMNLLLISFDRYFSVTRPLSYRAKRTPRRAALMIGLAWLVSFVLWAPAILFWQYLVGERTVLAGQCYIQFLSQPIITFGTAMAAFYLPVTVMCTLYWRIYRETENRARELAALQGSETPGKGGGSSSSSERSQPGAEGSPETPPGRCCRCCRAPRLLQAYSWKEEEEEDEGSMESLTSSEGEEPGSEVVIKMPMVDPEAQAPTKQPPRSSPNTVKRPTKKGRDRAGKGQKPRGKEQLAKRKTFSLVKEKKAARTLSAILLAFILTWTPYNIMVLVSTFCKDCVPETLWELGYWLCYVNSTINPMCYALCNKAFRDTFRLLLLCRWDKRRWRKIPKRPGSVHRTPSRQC
Assay: Measurement of M1 receptor positive allosteric modulator (M1PAM) activity, calcium fluorescence (FLIPRtetra) in CHO-K1 cells in the presence of acetylcholine at EC20
Type: cell-based
Conditions: in the presence of acetylcholine at EC20 (final 0.6 nM), CHO-K1 cells expressing hCHRM1; for EC50: inflection point of M1PAM activity, read-out: IP value; for activity (%) at 10 μM: test compound 10 μM
Method in brief: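 PAM activity was measured as calcium flux by FLIPRtetra over 1 min after co-addition of compound and EC20 acetylcholine (final 0.6 nM) to Fluo-4-loaded hCHRM1 CHO-K1 cells. The response was scaled between DMSO (0%) and 1 μM acetylcholine (100%), and the inflection point of the concentration curve gives the IP value.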

SMILES: Cn1cc(-c2ccc(CN3Cc4cccc(Oc5c(F)cc(N)cc5Cl)c4C3=O)cc2)cn1 [Example 11, 7-(4-amino-2-chloro-6-fluorophenoxy)-2-(4-(1-methyl-1H-pyrazol-4-yl)benzyl)isoindolin-1-one]
- EC50: 0.065 µM
- activity (%) at 10 μM: 102%

SMILES: Cn1cc(-c2ccc(CN3Cc4cccc(Oc5c(F)cccc5Cl)c4C3=O)cc2)cn1 [Example 12, 7-(2-chloro-6-fluorophenoxy)-2-(4-(1-methyl-1H-pyrazol-4-yl)benzyl)isoindolin-1-one]
- EC50: 0.036 µM
- activity (%) at 10 μM: 57%

SMILES: Cn1cc(-c2ccc(CN3Cc4cccc(OCCN5CCC(F)(F)CC5)c4C3=O)cc2)cn1 [Example 18, 7-(2-(4,4-difluoropiperidin-1-yl)ethoxy)-2-(4-(1-methyl-1H-pyrazol-4-yl)benzyl)isoindolin-1-one]
- EC50: 0.06 µM
- activity (%) at 10 μM: 107%

SMILES: Cn1cc(-c2ccc(CN3Cc4cccc(OCCN5CCCCC5)c4C3=O)cc2)cn1 [Example 21, 2-(4-(1-methyl-1H-pyrazol-4-yl)benzyl)-7-(2-(piperidin-1-yl)ethoxy)isoindolin-1-one]
- EC50: 0.096 µM
- activity (%) at 10 μM: 105%

SMILES: O=C(NCC1CCCO1)c1ccc(CN2Cc3cccc(OCC4CCCO4)c3C2=O)cc1 (stereo not drawn) [Example 38, 4-((1-oxo-7-((tetrahydrofuran-2-yl)methoxy)-1,3-dihydro-2H-isoindol-2-yl)methyl)-N-((tetrahydrofuran-2-yl)methyl)benzamide]
- EC50: 0.044 µM
- activity (%) at 10 μM: 118%

SMILES: Cl.N#Cc1cccc(F)c1Oc1cccc2c1C(=O)N(Cc1ccc(-c3ccn[nH]3)cc1)C2 [Example 42, 3-fluoro-2-((3-oxo-2-(4-(1H-pyrazol-5-yl)benzyl)-2,3-dihydro-1H-isoindol-4-yl)oxy)benzonitrile hydrochloride]
- EC50: 0.085 µM
- activity (%) at 10 μM: 107%

SMILES: Cn1cc(-c2ccc(CN3Cc4nccc(OCC5CCCO5)c4C3=O)cc2)cn1 (stereo not drawn) [Example 59, 6-(4-(1-methyl-1H-pyrazol-4-yl)benzyl)-4-((tetrahydrofuran-2-yl)methoxy)-6,7-dihydro-5H-pyrrolo[3,4-b]pyridin-5-one]
- EC50: 0.057 µM
- activity (%) at 10 μM: 136%

SMILES: O=C1c2c(OCC3CCCO3)ccnc2CN1Cc1ccc(-n2cccn2)cc1 (stereo not drawn) [Example 60, 6-(4-(1H-pyrazol-1-yl)benzyl)-4-((tetrahydrofuran-2-yl)methoxy)-6,7-dihydro-5H-pyrrolo[3,4-b]pyridin-5-one]
- EC50: 0.32 µM
- activity (%) at 10 μM: 115%

SMILES: O=C1c2c(ccnc2OCC2CCCO2)CN1Cc1ccc(-n2cccn2)cc1 (stereo not drawn) [Example 61, 2-(4-(1H-pyrazol-1-yl)benzyl)-4-((tetrahydrofuran-2-yl)methoxy)-1H-pyrrolo[3,4-c]pyridin-3(2H)-one]
- EC50: 0.037 µM
- activity (%) at 10 μM: 113%

SMILES: Cn1cc(-c2ccc(CN3Cc4cccc(Oc5c(F)cccc5C#N)c4C3=O)cn2)cn1 [Example 65, 3-fluoro-2-((2-((6-(1-methyl-1H-pyrazol-4-yl)pyridin-3-yl)methyl)-3-oxo-2,3-dihydro-1H-isoindol-4-yl)oxy)benzonitrile]
- EC50: 0.063 µM
- activity (%) at 10 μM: 76%

SMILES: Cc1cc(-c2ccc(CN3Cc4cccc(Oc5c(F)cccc5C#N)c4C3=O)cc2)ccn1 [Example 72, 3-fluoro-2-((2-(4-(2-methylpyridin-4-yl)benzyl)-3-oxo-2,3-dihydro-1H-isoindol-4-yl)oxy)benzonitrile]
- EC50: 0.088 µM
- activity (%) at 10 μM: 102%

SMILES: Cn1ccc(-c2ccc(CN3Cc4ccnc(OCC5CCCO5)c4C3=O)cc2)n1 (stereo not drawn) [Example 79, 2-(4-(1-methyl-1H-pyrazol-3-yl)benzyl)-4-((tetrahydrofuran-2-yl)methoxy)-1,2-dihydro-3H-pyrrolo[3,4-c]pyridin-3-one]
- EC50: 0.029 µM
- activity (%) at 10 μM: 114%

SMILES: Cc1nn(C)cc1-c1ccc(CN2Cc3ccnc(OCCn4cccn4)c3C2=O)cc1 [Example 225, 2-(4-(1,3-dimethyl-1H-pyrazol-4-yl)benzyl)-4-(2-(1H-pyrazol-1-yl)ethoxy)-1,2-dihydro-3H-pyrrolo[3,4-c]pyridin-3-one]
- EC50: 0.051 µM
- activity (%) at 10 μM: 104%

Other lines, results leading:

- EC50: 0.043 µM
- activity (%) at 10 μM: 102%
SMILES: Cn1cc(-c2ccc(CN3Cc4cccc(OC[C@H]5CCCO5)c4C3=O)cc2)cn1 [Example 13, 2-(4-(1-methyl-1H-pyrazol-4-yl)benzyl)-7-((2R)-(tetrahydrofuran-2-yl)methoxy)isoindolin-1-one]

- EC50: 0.047 µM
- activity (%) at 10 μM: 106%
SMILES: Cn1cc(-c2ccc(CN3Cc4cccc(OCC(=O)N5CCCCC5)c4C3=O)cc2)cn1 [Example 16, 2-(4-(1-methyl-1H-pyrazol-4-yl)benzyl)-7-(2-oxo-2-(piperidin-1-yl)ethoxy)isoindolin-1-one]

- EC50: 0.12 µM
- activity (%) at 10 μM: 118%
SMILES: Cn1cc(-c2ccc(CN3Cc4cccc(OCCO)c4C3=O)cc2)cn1 [Example 17, 7-(2-hydroxyethoxy)-2-(4-(1-methyl-1H-pyrazol-4-yl)benzyl)isoindolin-1-one]

- EC50: 0.11 µM
- activity (%) at 10 μM: 91%
SMILES: Cn1cc(-c2ccc(CN3Cc4cccc(OCCn5cccn5)c4C3=O)cc2)cn1 [Example 19, 2-(4-(1-methyl-1H-pyrazol-4-yl)benzyl)-7-(2-(H-pyrazol-1-yl)ethoxy)isoindolin-1-one]

- EC50: 0.08 µM
- activity (%) at 10 μM: 100%
SMILES: Cn1cc(-c2ccc(CN3Cc4cccc(Oc5cccnc5C#N)c4C3=O)cc2)cn1 [Example 20, 3-((2-(4-(1-methyl-1H-pyrazol-4-yl)benzyl)-3-oxo-2,3-dihydro-1H-isoindol-4-yl)oxy)pyridine-2-carbonitrile]

- EC50: 0.19 µM
- activity (%) at 10 μM: 103%
SMILES: Cc1n[nH]c(C)c1Oc1cccc2c1C(=O)N(Cc1ccc(-c3cnn(C)c3)cc1)C2 [Example 22, 7-((3,5-dimethyl-1H-pyrazol-4-yl)oxy)-2-(4-(1-methyl-1H-pyrazol-4-yl)benzyl)isoindolin-1-one]

- EC50: 0.27 µM
- activity (%) at 10 μM: 90%
SMILES: O=C1c2c(cccc2OCC2CCCO2)CN1Cc1ccc(-n2cccn2)cc1 (stereo not drawn) [Example 53, 2-(4-(1H-pyrazol-1-yl)benzyl)-7-((tetrahydrofuran-2-yl)methoxy)isoindolin-1-one]

- EC50: 0.069 µM
- activity (%) at 10 μM: 101%
SMILES: N#Cc1cccc(F)c1Oc1cccc2c1C(=O)N(Cc1ccc(-n3cccn3)cc1)C2 [Example 66, 3-fluoro-2-((3-oxo-2-(4-(1H-pyrazol-1-yl)benzyl)-2,3-dihydro-1H-isoindol-4-yl)oxy)benzonitrile]

- EC50: 0.072 µM
- activity (%) at 10 μM: 109%
SMILES: Cn1cc(-c2ccc(CN3Cc4cccc(Oc5c(F)cccc5C#N)c4C3=O)c(Cl)c2)cn1 [Example 68, 2-((2-(2-chloro-4-(1-methyl-1H-pyrazol-4-yl)benzyl)-3-oxo-2,3-dihydro-1H-isoindol-4-yl)oxy)-3-fluorobenzonitrile]

- EC50: 0.41 µM
- activity (%) at 10 μM: 103%
SMILES: Cn1cc(-c2coc(CN3Cc4cccc(Oc5c(F)cccc5C#N)c4C3=O)c2)cn1 [Example 69, 3-fluoro-2-((2-((4-(1-methyl-1H-pyrazol-4-yl)-2-furyl)methyl)-3-oxo-2,3-dihydro-1H-isoindol-4-yl)oxy)benzonitrile]

- EC50: 0.024 µM
- activity (%) at 10 μM: 99%
SMILES: Cn1cc(-c2ccc(CN3Cc4cccc(Oc5c(F)cc(F)cc5C#N)c4C3=O)cc2)cn1 [Example 73]

- EC50: 0.01 µM
- activity (%) at 10 μM: 104%
SMILES: Cc1nn(C)cc1-c1ccc(CN2Cc3ccnc(OCC4CCCO4)c3C2=O)cc1 (stereo not drawn) [Example 78, 2-(4-(1,3-dimethyl-1H-pyrazol-4-yl)benzyl)-4-((tetrahydrofuran-2-yl)methoxy)-1,2-dihydro-3H-pyrrolo[3,4-c]pyridin-3-one]

- EC50: 0.0056 µM
- activity (%) at 10 μM: 100%
SMILES: Cc1cc(-c2ccc(CN3Cc4ccnc(OCC5CCCO5)c4C3=O)cc2)ccn1 (stereo not drawn) [Example 80]

- EC50: 0.17 µM
- activity (%) at 10 μM: 57%
SMILES: O=C1c2c(cccc2Oc2c(F)cccc2Cl)CN1Cc1ccc(-c2ccnnc2)cc1 [Example 81, 7-(2-chloro-6-fluorophenoxy)-2-(4-(pyridazin-4-yl)benzyl)isoindolin-1-one]

- EC50: 0.017 µM
- activity (%) at 10 μM: 104%
SMILES: O=C1c2c(ccnc2OCC2CCCO2)CN1Cc1ccc(-n2cccn2)cc1F (stereo not drawn) [Example 86, 2-(2-fluoro-4-(1H-pyrazol-1-yl)benzyl)-4-((tetrahydrofuran-2-yl)methoxy)-1,2-dihydro-3H-pyrrolo[3,4-c]pyridin-3-one]

- EC50: 0.0061 µM
- activity (%) at 10 μM: 117%
SMILES: Cc1nn(C)cc1-c1ccc(CN2Cc3ccnc(OCC4CCCO4)c3C2=O)c(F)c1 (stereo not drawn) [Example 229, 2-(4-(1,3-dimethyl-1H-pyrazol-4-yl)-2-fluorobenzyl)-4-((tetrahydrofuran-2-yl)methoxy)-1,2-dihydro-3H-pyrrolo[3,4-c]pyridin-3-one]

- EC50: 0.01 µM
- activity (%) at 10 μM: 113%
SMILES: Cn1ccc(-c2ccc(CN3Cc4ccnc(OCC5CCCO5)c4C3=O)c(F)c2)n1 (stereo not drawn) [Example 230, 2-(2-fluoro-4-(1-methyl-1H-pyrazol-3-yl)benzyl)-4-((tetrahydrofuran-2-yl)methoxy)-1,2-dihydro-3H-pyrrolo[3,4-c]pyridin-3-one]
